Reference: article PMC11785709, “Angelica gigas Nakai (Korean Dang-gui) Root Alcoholic Extracts in Health Promotion and Disease Therapy – active Phytochemicals and In Vivo Molecular Targets” (Pharmaceutical Research, 2025)
pIC50, pKi: −log10 of the molar value. Values after ≈ are worked out from the molar mass of the structure shown. Values joined by “and” are separate entries in the source; they are usually repeats but may differ in a detail not shown here. Identical values can stand only once. “Also recorded” adds a separate entry of the source. Like-named read-outs stand apart in the source and are kept apart here.

Key:
[1] = system: most sensitive bacterial strain; parameters: method as in PMID 12877552; conditions: cited from earlier work
CYP2C19 and 3A4 = conditions: cited from earlier work
[2] = oral AGN 100 mg per rat (~ 300 mg/kg bw); cited from earlier work
bacteria [3] = system: bacteria; parameters: method as in doi:10.7324/JAPS201331012; conditions: cited from earlier work
GDH = system: GDH; parameters: method as in PMID 36455296; conditions: read-out: GDH inhibition IC50; cited from earlier work
[4] = system: adipose stem cells (ASCs); parameters: method as in PMID 31861646; conditions: cited from earlier work
carboxyesterase-2 (CES2) = conditions: cited from earlier work
AChE [5] = system: AChE; parameters: method as in PMID 11374978; conditions: read-out: AChE inhibition IC50; cited from earlier work
[6] = system: most sensitive bacterial strain; assay: bactericidal activity of D, MIC; format: cell-based; conditions: converted value in brackets; read-out: minimal inhibitory concentration
[7] = system: destabilization of medial meniscus (DMM) OA; parameters: method as in PMID 33878544; conditions: daily gavage, 20 mg/kg, 8 weeks after DMM; cited from earlier work
[8] = cited from earlier work
paclitaxel-CINP = system: paclitaxel-CINP; parameters: method as in PMID 33806325; conditions: cited from earlier work
[9] = system: collagen/epinephrine-induced thromboembolism; parameters: method as in PMID 34575088; conditions: D at 12.5 mg/kg; cited from earlier work
MAO-B = system: MAO-B; parameters: method as in PMID 28109809; conditions: screened at 10 μM; cited from earlier work
hair growth = system: hair growth; parameters: method as in PMID 32823713; conditions: cited from earlier work
bacteria [10] = assay: bactericidal activity of D, MIC (Thailand group); format: cell-based; conditions: converted value in brackets
human MAO-A = system: human MAO-A; parameters: method as in PMID 28109809; conditions: cited from earlier work
AR; ERα = conditions: cited from earlier work
TRPV1 = system: TRPV1; parameters: method as in PMID 33806325; conditions: capsaicin-induced, F11 cell culture; read-out: TRPV1-Ca2+ release IC50; cited from earlier work
[11] = system: high fat-diet induced obesity; parameters: method as in PMID 21972114; conditions: HFD plus D 200 mg/kg (ppm), 7 weeks; cited from earlier work
HepG2 cells = system: HepG2 cells; parameters: method as in earlier work; conditions: free fatty acid mixture (oleate:palmitate = 2:1); cited from earlier work
[12] = system: global cerebral ischemia BOCCA model; parameters: method as in PMID 33918660; conditions: cited from earlier work
[13] = system: kainic acid (KA)-induced status epilepticus; parameters: method as in PMID 25171200; conditions: D ip 20 mg/kg 30 min prior to KA; cited from earlier work
[14] = cited from earlier work; remark: listed apart in the source
HFD-induced obese mice = system: HFD-induced obese mice; parameters: method as in PMID 34165214; conditions: daily oral 10 and 20 mg/kg, 5 weeks; cited from earlier work
[15] = system: bone marrow stem cells (BMSCs); parameters: method as in PMID 37866743; conditions: cell culture exposure; cited from earlier work
CP-treated mice = system: CP-treated mice; parameters: method as in PMID 34875347; conditions: cited from earlier work
[16] = system: RANKL-induced osteoclastogenesis; parameters: method as in PMID 37866743; conditions: cell culture model; cited from earlier work
OVX-induced bone loss = system: OVX-induced bone loss; parameters: method as in PMID 37866743; conditions: oral nodakenin; cited from earlier work
[17] = system: MDA-MB231 sc breast cancer xenograft; conditions: 30 mg/kg ip twice weekly, 5-week assay; cited from earlier work
AChE [18] = system: AChE; parameters: method as in PMID 17382968; conditions: in vitro test; cited from earlier work
breast cancer cell = system: breast cancer cell; parameters: method as in PMID 36830050; conditions: concentration-dependent; cited from earlier work
AChE [19] = system: AChE; parameters: method as in PMID 17382968; conditions: ex vivo, 6 h after dose; cited from earlier work
[20] = rat, in vivo, po, cited from earlier work
[21] = rat, in vivo, iv; cited from earlier work
[22] = system: scopolamine-induced memory disruption; parameters: method as in PMID 17382968; conditions: 10 mg/kg, po; cited from earlier work
TNBS-induced colitis = system: TNBS-induced colitis; parameters: method as in PMID 39042157; conditions: cited from earlier work
[23] = system: acute thermal pain models and CINP; parameters: method as in PMID 36249788; conditions: once-daily ip; hot plate, tail-flick and CINP mice; cited from earlier work
[24] = topical 0.15% D or 2% AGN root extract

## CC(C)=CC(=O)O[C@H]1Cc2cc3ccc(=O)oc3cc2OC1(C)C [D, decursin]
[1]
  minimal inhibitory concentration: ~ 12.5 mg/L
CYP2C19 and 3A4
  Cyp isoforms for metabolism to DOH: major human isoforms
[2]
  elimination of plasma D: barely detectable after 7 h
  time of peak absorption, plasma D: around 4 h
Bacteria [3]
  MIC: ~ 32 mg/L
GDH
  pIC50: ~6.00 and 6.00
[4]
  adipocyte differentiation: significantly inhibited adipocyte differentiation
carboxyesterase-2 (CES2)
  CES2 contribution to metabolism to DOH: further contributed
AChE [5]
  pIC50: 3.41
[6]
  MIC: ~38 µM (≈ 12.5 µg/mL)
[7]
  destruction of articular cartilage: attenuated the destruction of articular cartilage
[8]; in vivo
  relative circulating Cmax and AUC: ~1 ×
  relative plasma Cmax: 1 x
[8]; read-out: mean peak concentration Cmax, 10 men and 10 women, 800 mg INM176 AGN oral
  Cmax: 5.3 nM
paclitaxel-CINP; first it injection of D 50 mg/kg
  mechanical allodynia relief: no relief
paclitaxel-CINP; second and third it injections
  duration of blunted allodynia: up to 3 h
[9]
  protection against thromboembolism: replicated the protective effect
MAO-B
  inhibitory activity on MAO-B: lacked any inhibitory activity
Hair growth; [24]
  time at which hair growth was complete: 17 days
  time from which hair growth was visibly facilitated: 7 days
Hair growth; topical twice a day 17 days, 0.15% D or 2% AGN root extract
  hair growth: promoted hair growth in equal efficacy
Bacteria [10]
  MIC: ~98 µM (≈ 32.2 µg/mL)
Human MAO-A; read-out: MAO-A inhibition IC50
  pIC50: 5.72
Human MAO-A; reversible and competitive inhibitor
  pKi: 6.77
AR; ERα; antagonist/degrader
  pIC50: ~5.30
AR; ERα; responsive cancer cell culture models
  mode of action on AR and ERα: antagonists/degraders
TRPV1
  pIC50: ~6.00
[11]
  weight gain: decreased weight gain
HepG2 cells
  lipid accumulation: suppressed lipid accumulation
[12]; oral post-ischemia, AGN 350 and 400 mg/kg or D 25 mg/kg
  protection of CA1 pyramidal neurons: spared the pyramidal neurons from ischemic death; also recorded: detectable protection
[12]; post-treatment, 5 days following BOCCA
  spatial memory (8-ARMT) and learning memory (PAT): preserved spatial memory
[13]
  behavioral seizure activity: decreased behavioral seizure activity
[14]; 4.6 g AGN root powder per subject
  t1/2: 3.03 h
[14]; in vivo
  tmax: 26.4 min

## CC(C)(O[C@@H]1O[C@H](CO)[C@@H](O)[C@H](O)[C@H]1O)[C@H]1Cc2cc3ccc(=O)oc3cc2O1 [Nodakenin, nodakenin]
HFD-induced obese mice
  suppression of weight gain, dyslipidemia and fatty liver: comparable potency to orlistat
[15]
  osteogenic differentiation: promoted osteogenic differentiation
CP-treated mice
  levels of IFN-γ, IL-12, IL-2, IL-6, and TNF-α in serum and spleen: increased
AChE [5]
  pIC50: 4.17
[16]
  osteoclastogenesis: inhibited RANKL-induced osteoclastogenesis
OVX-induced bone loss
  bone mass: elevated mouse bone mass
[17]
  xenograft growth inhibition: ~ 88%
AChE [18]
  pIC50: 4.07
Breast cancer cell
  breast cancer cell viability: inhibited breast cancer cell viability
AChE [19]
  brain slice AChE activity: lowered
[20]; 2.5 mg/kg
  t1/2: 4.6 h
[20]; 10 mg/kg
  t1/2: 6.2 h
[21]
  t1/2: 3.3 h
[22]
  scopolamine-induced memory disruption: ameliorate
TNBS-induced colitis; colon sample, 40 mg/kg
  downregulation of COX-2 mRNA expression: 1.98 fold
  downregulation of IL-1β mRNA expression: 1.29 fold
  downregulation of IL-18 mRNA expression: 1.17 fold
  downregulation of NFƙB mRNA expression: 1.24 fold
  downregulation of NLRP3 mRNA expression: 1.78 fold
  downregulation of iNOS mRNA expression: 1.2 fold
TNBS-induced colitis; gavage 10, 20, and 40 mg/kg
  disease activity index (DAI) score: lowered the DAI score
[14]; in vivo
  apparent volume of distribution Vd: 2800 L
  t1/2: 6.28 h

## CN1CC[C@]23c4c5ccc(O)c4O[C@H]2[C@@H](O)C=C[C@H]3[C@H]1C5 [morphine, reference compound]
[23]
  time to tolerance development: < 3 days
